ChEMBL document CHEMBL4219085, “Discovery of isatin and 1H-indazol-3-ol derivatives as d-amino acid oxidase (DAAO) inhibitors” (Bioorg Med Chem, 2018)
Values belong to the compound of their own block, whether it stands above or below them.

Assays:
D-amino-acid oxidase [1] = biological target: D-amino-acid oxidase (Sus scrofa, UniProt P00371); test: Binding affinity to pig kidney DAAO by ITC method
D-amino-acid oxidase [2] = biological target: T1, D-amino-acid oxidase (Homo sapiens, UniProt P14920); test: Inhibition of human DAAO using D-KYN as substrate preincubated for 20 mins followed by substrate addition measured after 30 mins by FP-6300-based fluorescence spectrometry
Target sequence in this assay (P14920 whole entry): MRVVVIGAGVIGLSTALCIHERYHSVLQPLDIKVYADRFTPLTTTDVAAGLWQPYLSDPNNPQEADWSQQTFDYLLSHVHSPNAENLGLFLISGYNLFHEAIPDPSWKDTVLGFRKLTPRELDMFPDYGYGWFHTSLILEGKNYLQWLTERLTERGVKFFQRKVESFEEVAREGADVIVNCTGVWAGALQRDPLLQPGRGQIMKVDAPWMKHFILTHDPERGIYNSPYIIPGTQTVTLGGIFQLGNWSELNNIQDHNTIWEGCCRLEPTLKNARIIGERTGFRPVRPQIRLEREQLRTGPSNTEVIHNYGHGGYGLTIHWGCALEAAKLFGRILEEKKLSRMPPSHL

[3] = Dissociation constant, pKa of the compound by UV-spectrophotometric titration method; type: physicochemical
[4] = Effective permeability of the compound after 4 hrs at pH 5.5 to 7.4 by PAMPA; type: ADME; conditions: read-out: Peff
[5] = Effective permeability of the compound assessed as membrane retention after 4 hrs at pH 5.5 to 7.4 by PAMPA; type: ADME; conditions: pH 5.5, 4 h
[6] = Effective permeability of the compound after 4 hrs at pH 6.5 to 7.4 by PAMPA; type: ADME; conditions: read-out: Peff
[7] = Effective permeability of the compound assessed as membrane retention after 4 hrs at pH 6.5 to 7.4 by PAMPA; type: ADME; conditions: pH 6.5, 4 h
[8] = Effective permeability of the compound after 4 hrs at pH 7.4 by PAMPA; type: ADME; conditions: read-out: Peff
[9] = Effective permeability of the compound assessed as membrane retention after 4 hrs at pH 7.4 by PAMPA; type: ADME; conditions: pH 7.4, 4 h
[10] = Elimination half life in NMRI mouse hepatic microsomes at 1 uM up to 90 mins by LC-MS/MS analysis; type: ADME, microsome; conditions: liver microsomes, read-out: beta t1/2
[11] = Intrinsic clearance in NMRI mouse hepatic microsomes at 1 uM up to 90 mins by LC-MS/MS analysis; type: ADME, microsome; conditions: liver microsomes, read-out: CLH
[12] = Elimination half life in NMRI mouse primary hepatocytes at 1 uM up to 240 mins by LC-MS/MS analysis; type: ADME, cell-based, Hepatocyte; conditions: read-out: beta t1/2
[13] = Intrinsic clearance in NMRI mouse primary hepatocytes at 1 uM up to 240 mins by LC-MS/MS analysis; type: ADME, cell-based, Hepatocyte; conditions: read-out: CLH
[14] = Elimination half life in human hepatic microsomes at 1 uM up to 90 mins by LC-MS/MS analysis; type: ADME, microsome; conditions: liver microsomes, read-out: beta t1/2
[15] = Intrinsic clearance in human hepatic microsomes at 1 uM up to 90 mins by LC-MS/MS analysis; type: ADME, microsome; conditions: liver microsomes, read-out: CLH
[16] = Elimination half life in human primary hepatocytes at 1 uM up to 240 mins by LC-MS/MS analysis; type: ADME, cell-based, Hepatocyte; conditions: read-out: beta t1/2
[17] = Intrinsic clearance in human primary hepatocytes at 1 uM up to 240 mins by LC-MS/MS analysis; type: ADME, cell-based, Hepatocyte; conditions: read-out: CLH
D-amino-acid oxidase [18] = biological target: T1, D-amino-acid oxidase; test: Inhibition of human DAAO at 20 uM using D-KYN as substrate preincubated for 20 mins followed by substrate addition measured after 30 mins by FP-6300-based fluorescence spectrometry
Target sequence in this assay (P14920 whole entry, looked up): as the sequence (P14920 whole entry) above

D-amino-acid oxidase [19] = biological target: T1, D-amino-acid oxidase; test: Inhibition of DAAO (unknown origin)
Target sequence in this assay (P14920 whole entry): as above

Mus musculus [20] = test: Anti-schizophrenic activity in NMRI mouse assessed as increase in D-serine levels in blood at 30 mg/kg, ip measured after 10 mins by capillary electrophoresis laser induced fluorescence method; type: functional
Mus musculus [21] = test: Anti-schizophrenic activity in NMRI mouse assessed as increase in D-serine levels in blood at 30 mg/kg, ip measured after 60 mins by capillary electrophoresis laser induced fluorescence method; type: functional
[22] = Drug level in blood of NMRI mouse assessed at 30 mg/kg, ip co-dosed with 30 mg/kg, ip D-serine measured after 10 mins; type: ADME, organism-based; conditions: read-out: Drug uptake
[23] = Drug level in blood of NMRI mouse assessed at 30 mg/kg, ip co-dosed with 30 mg/kg, ip D-serine measured after 60 mins; type: ADME, organism-based; conditions: read-out: Drug uptake

Chain of D-amino-acid oxidase (Sus scrofa, UniProt P00371) (P00371 whole entry): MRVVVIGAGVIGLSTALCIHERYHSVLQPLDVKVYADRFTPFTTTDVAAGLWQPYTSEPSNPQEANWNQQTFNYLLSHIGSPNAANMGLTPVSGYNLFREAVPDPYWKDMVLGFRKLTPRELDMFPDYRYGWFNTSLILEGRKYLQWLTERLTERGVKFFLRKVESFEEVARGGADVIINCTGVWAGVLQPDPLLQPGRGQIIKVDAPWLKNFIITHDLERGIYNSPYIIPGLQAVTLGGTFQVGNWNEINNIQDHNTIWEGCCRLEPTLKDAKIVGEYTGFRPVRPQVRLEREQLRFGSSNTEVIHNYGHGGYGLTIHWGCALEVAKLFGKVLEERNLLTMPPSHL

Kd (D-amino-acid oxidase [1]): 3290 nM
SMILES: O=c1[nH][nH]c2ccc(Br)cc12

IC50 (D-amino-acid oxidase [2]): 150 to 156 nM
pKa [3]: 7.59
Kd (D-amino-acid oxidase [1]): 2000 nM
Papp at 4 h [4]: 9.53 ×10⁻⁶ cm/s
R% [5]: 6.7%
Papp at 4 h [6]: 7.43 ×10⁻⁶ cm/s
R% [7]: 9.7%
Papp at 4 h [8]: 4.47 ×10⁻⁶ cm/s
R% [9]: 2.5%
half-life at […], 1 µM [10]: 0.942 h
CLint scaled at […], 1 µM [11]: 11.7 mL/min/kg
half-life at 1 µM [12]: 0.87 h
CLint scaled at 1 µM [13]: 68.2 mL/min/kg
half-life at […], 1 µM [14]: 3.6 h
CLint scaled at […], 1 µM [15]: 0.76 mL/min/kg
half-life at 1 µM [16]: 7.51 h
CLint scaled at 1 µM [17]: 2.54 mL/min/kg
SMILES: Oc1n[nH]c2cc(Cl)ccc12

inhibition (D-amino-acid oxidase [18]): 66%
SMILES: Oc1cc(CCc2ccccc2)[nH]n1

inhibition (D-amino-acid oxidase [18]): 34%
pKa [3]: 7.51
SMILES: Oc1n[nH]c2cccc(Br)c12

IC50 (D-amino-acid oxidase [2]): 1200 nM
pKa [3]: 6.52
Kd (D-amino-acid oxidase [1]): 4590 nM
SMILES: O=[N+]([O-])c1ccc2c(O)[nH]nc2c1

pKa [3]: 7.53
Kd (D-amino-acid oxidase [1]): 780 nM
SMILES: Oc1n[nH]c2ccc(Cl)cc12

IC50 (D-amino-acid oxidase [2]): 10100 nM
pKa [3]: 7.28
Kd (D-amino-acid oxidase [1]): 3310 nM
SMILES: Oc1n[nH]c2c(Cl)cccc12

inhibition (D-amino-acid oxidase [18]): 19%
pKa [3]: 7.51
SMILES: Oc1n[nH]c2cccc(Cl)c12

IC50 (D-amino-acid oxidase [19]): 7870 nM
pKa [3]: 9.44
SMILES: O=C1Nc2c(Cl)cccc2C1=O

Kd (D-amino-acid oxidase [1]): 1200 nM
SMILES: Oc1n[nH]c2ccc(F)cc12

IC50 (D-amino-acid oxidase [2]): 418 nM
Kd (D-amino-acid oxidase [1]): 440 nM
SMILES: Oc1noc2ccccc12

IC50 (D-amino-acid oxidase [2]): 13100 nM
Kd (D-amino-acid oxidase [1]): 8230 nM
SMILES: Cc1cccc2c1NC(=O)C2=O

Kd (D-amino-acid oxidase [1]): 870 nM
SMILES: Oc1noc2cc(Cl)ccc12

pKa [3]: 8.16
Kd (D-amino-acid oxidase [1]): 4430 nM
SMILES: O=c1[nH][nH]c2ccccc12

IC50 (D-amino-acid oxidase [2]): 120 to 123 nM
pKa [3]: 7.84
Kd (D-amino-acid oxidase [1]): 1000 nM
Papp at 4 h [4]: 1.2 ×10⁻⁶ cm/s
R% [5]: 3.9%
Papp at 4 h [6]: 0.97 ×10⁻⁶ cm/s
R% [7]: 7.1%
Papp at 4 h [8]: 0.72 ×10⁻⁶ cm/s
R% [9]: 5.8%
half-life at […], 1 µM [10]: 1.33 h
CLint scaled at […], 1 µM [11]: 8.29 mL/min/kg
half-life at 1 µM [12]: 2.97 h
CLint scaled at 1 µM [13]: 20 mL/min/kg
half-life at […], 1 µM [14]: 3.04 h
CLint scaled at […], 1 µM [15]: 0.9 mL/min/kg
half-life at 1 µM [16]: 6.86 h
CLint scaled at 1 µM [17]: 2.78 mL/min/kg
concentration at 10 min [22]: 13.1 µM
concentration at 1 h [23]: 0.77 µM
SMILES: Oc1n[nH]c2cc(F)ccc12
Activity (Mus musculus [20]): 33%
Activity (Mus musculus [21]): 27%
